Source: patent US10800784B2, “Nitrogen-containing heterocyclic amide compound and pharmaceutical use thereof” (Japan Tobacco Inc., priority 2018, dated 2020)

Columns and labels:
human PDHK2 (hPDHK2) = human PDHK2 (hPDHK2) (Homo sapiens (Human), UniProt Q15119); assay: Inhibitory action of PDHK2 activity in vitro (residual PDH activity after PDHK reaction); type: biochemical; conditions: for IC50: PDH/hPDHK2 complex solution, PDHK reaction at room temperature for 45 min, NADH absorbance at 340 nm, read-out: kPDK2 IC50; for hPDHK2 inhibitory rate at the lowest concentration of the test compound: lowest concentration of the test compound in the assay (<3 nmol/L), shown when IC50 value could not be calculated
Procedure, shortened: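 Indirect assay: FLAG-tagged hPDHK2 (0.5 μg/mL) precomplexed overnight at 4 °C with PDH (0.025 U/mL), then kinase reaction with compound and ATP 45 min at room temperature, pH 7.0 MOPS buffer. Residual PDH activity measured after 90 min with pyruvate, CoA, NAD, TPP as NADH absorbance at 340 nm, corrected for compound effect on PDH-only blank.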

human PDHK1 (hPDHK1) = human PDHK1 (hPDHK1) (Homo sapiens (Human), UniProt Q15118); assay: Inhibitory action of PDHK1 activity in vitro (residual PDH activity after PDHK reaction); type: biochemical; conditions: for IC50: PDH/hPDHK1 complex solution, PDHK reaction at room temperature for 45 min, NADH absorbance at 340 nm, read-out: hPDK1 IC50; for inhibition at 0.003 µM: at 3 nmol/L, shown when IC50 value could not be calculated, read-out: hPDHK1 inhibitory rate at the lowest concentration of the test compound
Chain of human PDHK1 (hPDHK1) (Q15118 29-436): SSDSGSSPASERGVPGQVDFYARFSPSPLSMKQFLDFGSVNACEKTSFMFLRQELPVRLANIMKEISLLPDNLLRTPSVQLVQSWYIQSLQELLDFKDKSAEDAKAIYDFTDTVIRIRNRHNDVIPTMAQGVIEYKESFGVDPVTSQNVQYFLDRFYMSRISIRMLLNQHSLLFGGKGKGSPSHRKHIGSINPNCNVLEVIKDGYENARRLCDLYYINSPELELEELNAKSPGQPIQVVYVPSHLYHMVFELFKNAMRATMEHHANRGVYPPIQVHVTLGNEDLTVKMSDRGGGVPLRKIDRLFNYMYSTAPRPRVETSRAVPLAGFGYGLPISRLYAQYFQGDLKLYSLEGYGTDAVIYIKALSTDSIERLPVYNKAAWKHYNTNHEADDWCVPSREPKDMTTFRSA
Procedure, shortened: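 N-FLAG hPDHK1 (E. coli-expressed, 0.5 μg/mL) precomplexed overnight at 4 °C with porcine heart PDH (0.025 U/mL), then reacted 45 min at room temperature with compound and ATP (0.353 μmol/L as added) in MOPS pH 7.0 buffer. Residual PDH activity after 90 min with pyruvate, CoA, NAD, TPP read as NADH at 340 nm.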

SMILES | IC50 (human PDHK2 (hPDHK2)) [nM] | IC50 (human PDHK1 (hPDHK1)) [nM] | inhibition at 0.003 µM (human PDHK1 (hPDHK1)) [%] | hPDHK2 inhibitory rate at the lowest concentration of the test compound (human PDHK2 (hPDHK2)) [%]
C[C@H]1CN(C(=O)c2cncc(-c3ccc(F)cc3)c2)Cc2cnc([C@@](C)(O)C(F)(F)F)n21 [Example 80] | 6 | 3 | – | –
C[C@H]1CN(C(=O)c2cc(-c3ccc(C#N)cc3)n(C)n2)Cc2cnc([C@@](C)(O)C(F)(F)F)n21 [Example 33] | 16 | 12 | – | –
C[C@H]1CN(C(=O)[C@@H]2c3ccccc3CCN2C)Cc2onc([C@@](C)(O)C(F)(F)F)c21 [Example 106] | 4 | < 3 | 61 | –
C[C@H]1CN(C(=O)c2ccc(C3CC3)nc2)Cc2cnc([C@@](C)(O)C(F)(F)F)n21 [Example 30] | 13 | 20 | – | –
C[C@H]1CN(C(=O)c2ccnc(-c3ccc(C#N)cc3)c2F)Cc2cnc([C@@](C)(O)C(F)(F)F)n21 [Example 78] | 7 | 4 | – | –
C[C@H]1CN(C(=O)c2cc(-c3ccc(F)cn3)nn2C)Cc2cnc([C@@](C)(O)C(F)(F)F)n21 [Example 81] | 7 | 5 | – | –
C[C@H]1CN(C(=O)c2ccnc(-c3ccc(F)cc3)c2F)Cc2cnc([C@@](C)(O)C(F)(F)F)n21 [Example 87] | < 3 | < 3 | 66 | 53
Cc1c(C(=O)N2Cc3cnc([C@@](C)(O)C(F)(F)F)n3[C@@H](C)C2)ccnc1-c1ccc(C#N)cc1 [Example 65] | 5 | 4 | – | –
C[C@H]1CN(C(=O)c2cccc(-c3ccc(C#N)cn3)c2)Cc2cnc([C@@](C)(O)C(F)(F)F)n21 [Example 79] | 8 | 5 | – | –
C[C@H]1CN(C(=O)c2cccc(-c3ccc(F)cc3)n2)Cc2cnc([C@@](C)(O)C(F)(F)F)n21 [Example 38] | 4 | < 3 | 73 | –
C[C@H]1CN(C(=O)[C@H]2NCCc3ccccc32)Cc2onc([C@@](C)(O)C(F)(F)F)c21 [Example 105] | 8 | 9 | – | –
C[C@H]1CN(C(=O)c2ccc(=O)n(C3CC3)c2)Cc2cnc([C@@](C)(O)C(F)(F)F)n21 [Example 24] | 36 | 42 | – | –
C[C@H]1CN(C(=O)c2cc(-c3ccc(F)cc3)nn2C)Cc2cnc([C@@](C)(O)C(F)(F)F)n21 [Example 16, (3-(4-fluorophenyl)-1-methyl-1H-pyrazol-5-yl) ((S)-5-methyl-3-((R)-1,1,1-trifluoro-2-hydroxypropan-2-yl)-5,6-dihydroimidazo[1,5-a]pyrazin-7(8H)-yl)methanone] | 7 | 6 | – | –
C[C@H]1CN(C(=O)c2cc(-c3ccc(F)cc3)on2)Cc2cnc([C@@](C)(O)C(F)(F)F)n21 [Example 26] | 14 | 9 | – | –
C[C@H]1CN(C(=O)c2cccc3[nH]ncc23)Cc2onc([C@@](C)(O)C(F)(F)F)c21 [Example 102] | 4 | 4 | – | –
C[C@H]1CN(C(=O)c2cc(C3CC3)nn2C)Cc2cnc([C@@](C)(O)C(F)(F)F)n21 [Example 14] | < 3 | < 3 | 68 | 57
C[C@H]1CN(C(=O)c2ncccc2-c2ccc(F)cc2)Cc2cnc([C@@](C)(O)C(F)(F)F)n21 [Example 39] | 18 | 46 | – | –
C[C@H]1CN(C(=O)c2ccnn2C2CC2)Cc2onc([C@@](C)(O)C(F)(F)F)c21 [Example 109] | 5 | < 3 | 53 | –
C[C@H]1CN(C(=O)c2cc(-c3ccc(C#N)cn3)nn2C)Cc2cnc([C@@](C)(O)C(F)(F)F)n21 [Example 73, 6-(1-methyl-5-((S)-5-methyl-3-((R)-1,1,1-trifluoro-2-hydroxypropan-2-yl)-5,6,7,8-tetrahydroimidazo[1,5-a]pyrazine-7-carbonyl)-1H-pyrazol-3-yl)nicotinonitrile] | 7 | 6 | – | –
C[C@H]1CN(C(=O)c2ccc(C#N)c(-c3ccc(F)cn3)c2)Cc2cnc([C@@](C)(O)C(F)(F)F)n21 [Example 77] | 9 | 6 | – | –
Cc1cc(C#N)ccc1-c1cc(C(=O)N2Cc3cnc([C@@](C)(O)C(F)(F)F)n3[C@@H](C)C2)n(C)n1 [Example 75] | 11 | 6 | – | –
C[C@H]1CN(C(=O)c2n[nH]c3ccc(F)cc23)Cc2onc([C@@](C)(O)C(F)(F)F)c21 [Example 104] | 6 | 4 | – | –

SMILES | IC50 (human PDHK2 (hPDHK2)) [nM] | IC50 (human PDHK1 (hPDHK1)) [nM] | inhibition at 0.003 µM (human PDHK1 (hPDHK1)) [%] | hPDHK2 inhibitory rate at the lowest concentration of the test compound (human PDHK2 (hPDHK2)) [%]
C[C@H]1CN(C(=O)c2ccnc(-c3ccc(C#N)cc3F)c2)Cc2cnc([C@@](C)(O)C(F)(F)F)n21 [Example 62] | 4 | 3 | – | –
C[C@H]1CN(C(=O)C(C)(C)c2ccc(C(=O)O)c(C3CC3)c2)Cc2onc([C@@](C)(O)C(F)(F)F)c21 [Example 116] | 32 | 17 | – | –
C[C@H]1CN(C(=O)c2cc(-c3ccccc3)nn2C)Cc2nnc([C@@](C)(O)C(F)(F)F)n21 [Example 122, ((S)-5-methyl-3-((R)-1,1,1-trifluoro-2-hydroxypropan-2-yl)-5,6-dihydro-[1,2,4]triazolo[4,3-a]pyrazin-7(8H)-yl)(1-methyl-3-phenyl-1H-pyrazol-5-yl)methanone] | 7 | 5 | – | –
C[C@H]1CN(C(=O)c2cc(C3(C)CC3)nn2C)Cc2onc([C@@](C)(O)C(F)(F)F)c21 [Example 118] | 4 | 4 | – | –
C[C@H]1CN(C(=O)C2Cc3ccccc3C2)Cc2cnc([C@@](C)(O)C(F)(F)F)n21 [Example 3, (2,3-dihydro-1H-inden-2-yl)((S)-5-methyl-3-((R)-1,1,1-trifluoro-2-hydroxypropan-2-yl)-5,6-dihydroimidazo[1,5-a]pyrazin-7(8H)-yl)methanone] | 14 | 16 | – | –
C[C@H]1CN(C(=O)c2nnc(C3CC3)o2)Cc2onc([C@@](C)(O)C(F)(F)F)c21 [Example 115] | 8 | 6 | – | –
C[C@H]1CN(C(=O)c2c(C#N)c(C3CC3)nn2C)Cc2onc([C@@](C)(O)C(F)(F)F)c21 [Example 117] | 8 | 6 | – | –
C[C@H]1CN(C(=O)c2cnc3ccc(F)cn23)Cc2cnc([C@@](C)(O)C(F)(F)F)n21 [Example 8] | 34 | 49 | – | –
C[C@H]1CN(C(=O)c2ccnc(-c3ccc(F)cc3C#N)c2)Cc2cnc([C@@](C)(O)C(F)(F)F)n21 [Example 54] | 5 | < 3 | 53 | –
C[C@H]1CN(C(=O)c2cc(C3CC3)nn2C)Cc2onc([C@@](C)(O)C(F)(F)F)c21 [Example 108] | 6 | 5 | – | –
Cc1cc(-c2ccc(F)cc2C#N)ncc1C(=O)N1Cc2cnc([C@@](C)(O)C(F)(F)F)n2[C@@H](C)C1 [Example 59] | 3 | 4 | – | –
C[C@H]1CN(C(=O)c2nn(C)c(-c3ccc(C#N)cc3)c2Cl)Cc2cnc([C@@](C)(O)C(F)(F)F)n21 [Example 41] | 6 | 6 | – | –
C[C@H]1CN(C(=O)C2CCC(n3cc(Cl)cn3)CC2)Cc2cnc([C@@](C)(O)C(F)(F)F)n21 (some centres unmarked) [Example 89] | 19 | 20 | – | –
C[C@H]1CN(C(=O)c2nc3ccc(F)cc3o2)Cc2cnc([C@@](C)(O)C(F)(F)F)n21 [Example 2] | 15 | 12 | – | –
C[C@H]1CN(C(=O)c2cc(C3CCOCC3)nn2C)Cc2cnc([C@@](C)(O)C(F)(F)F)n21 [Example 20] | 12 | 8 | – | –
C[C@H]1CN(C(=O)c2c(Cl)c(-c3ccc(C#N)cc3)nn2C)Cc2cnc([C@@](C)(O)C(F)(F)F)n21 [Example 40, 4-(4-chloro-1-methyl-5-((S)-5-methyl-3-((R)-1,1,1-trifluoro-2-hydroxypropan-2-yl)-5,6,7,8-tetrahydroimidazo[1,5-a]pyrazine-7-carbonyl)-1H-pyrazol-3-yl)benzonitrile] | 6 | 5 | – | –
C[C@H]1CN(C(=O)c2c3cc(F)c(F)cc3nn2C)Cc2cnc([C@@](C)(O)C(F)(F)F)n21 [Example 9, (5,6-difluoro-2-methyl-2H-indazol-3-yl) ((S)-5-methyl-3-((R)-1,1,1-trifluoro-2-hydroxypropan-2-yl)-5,6-dihydroimidazo[1,5-a]pyrazin-7(8H)-yl)methanone] | 11 | 7 | – | –
C[C@H]1CN(C(=O)c2cc(C3CC3)nc(C(F)(F)F)c2)Cc2cnc([C@@](C)(O)C(F)(F)F)n21 [Example 98] | 6 | 6 | – | –
COc1ccc(-c2cc(C(=O)N3Cc4cnc([C@@](C)(O)C(F)(F)F)n4[C@@H](C)C3)no2)cc1 [Example 25] | 14 | 7 | – | –
C[C@H]1CN(C(=O)c2cc(-c3ccc(C#N)cc3)nn2C2CC2)Cc2cnc([C@@](C)(O)C(F)(F)F)n21 [Example 35] | 4 | 3 | – | –
C[C@H]1CN(C(=O)c2c(C#N)c(C3CC3)nn2C)Cc2cnc([C@@](C)(O)C(F)(F)F)n21 [Example 19] | < 3 | 5 | – | 67
